{
  "source": "patent US11517575B2",
  "about": "“Use of minaprine to reduce tumor growth” (Institut Gustave-Roussy, priority 2019, dated 2022)",
  "test_system": "CT26 cells",
  "assay": "Anti-tumor vaccination assay, CT26 cells in BALB/c mice",
  "format": "in vivo, mouse",
  "conditions": "for frequency of mice showing a protective response: 8 Gy + 10 μM compound 24 h",
  "method": "FIG. 5. Identification of cannibalism modulators as immunogenic cell death inducers. MCA205 (A) or CT26 (E, I, M, Q) cells were treated with the indicated drugs. After 24 h of coculture with the indicated treatment, cell death was monitored by staining DiOC6(3) and PI, and the percentage of dying (DiOC6(3)^low PI^−, open bars) and dead (DiOC6(3)^low PI^+, closed bars) cells was determined by cytofluorometry. (B-D) MCA205 cells or (F-H, J-L, N-P, R-T) CT26 cells cocultured after x irradiation with the indicated compounds were inoculated subcutaneously into the right flank of […] or BALB/c mice, respectively. Seven days later, the mice were rechallenged with live cells injected into the opposite flank, and tumor growth was monitored (five mice per group).\nFIG. 6. Tumor vaccination experiments. CT26 cells were treated for 24 hours with 10 μM VP331 (A, F, K), 10 μM Minaprine (B, G, L), 10 μM Lopa87 (C, H, M), 10 μM SG6163F (D, I, N), 10 μM Azaguanine-8 (8-aza) (E, J, O) alone or combined with 8 Gy ionizing radiation and inoculated (s.c.) into immunocompetent BALB/c mice, which were rechallenged at the opposite flank 7 days later with the same cancer cells. The percentage of tumor-free mice was evaluated three times a week for the following 38 days. Percentage of total tumor free mice (A-E), tumor free-mice at the first injection site (F to J, P) or at the second injection site (K to O, Q) are shown. (*P<0.05, **P<0.01, ***P<0.001, two-way ANOVA).\nThe combination of IRCCE with IR induces efficient antitumor immunity. Considering that immunogenic cell death (ICD) inducers were identified (such as Digoxin, Digitoxin, Lanatoside C or Doxorubicin hydrochloride)^3, 4, 48-51) as IRCCE, the ability of these compounds to induce an antitumor immunity after radiotherapy was evaluated. First, a preclinical approaches was developed to study the immunological effects of IRCCE on two mouse models of carcinoma (colon CT26 carcinoma and fibrosarcoma MCA205). Initially, the ability of the combination of IRCCE+IR to trigger a specific anti-tumor immune response was appreciated using immunocompetent mice through anti-tumor vaccination assays. According to previously published studies^52, the injection of cancer cells succumbing to an immunogenic cell death (ICD) into immunocompetent mice must elicit a protective immune response that is specific for tumor antigens. Thus, 3×10^5 MCA205 cells were first treated with 10 μM of SG6163F for 24 hours. Then, treated cells were inoculated subcutaneously in 200 μl PBS into the lower flank of 8-week-old female C57BL/6 mice. One week later, 3×10^4 untreated control cells were inoculated into the contralateral flank of mice. Tumors were evaluated weekly using a common caliper. Animals bearing tumors that exceeded 20-25% body mass were euthanatized. […] Then, 3×10^6 CT26 cells were irradiated with 8 Gy in presence of 10 μM of SG6163F (FIGS. 5E and 5F), VP331 (FIGS. 5I and 5J), Minaprine dihydrochloride (FIGS. 5M and 5N) or LOPA87 (FIGS. 5Q and 5R) for 24 hours. Then, cells were inoculated as previously described subcutaneously in […] into the lower flank of 8-week-old female BALB/c mice. One week later, 5×10^5 untreated control cells were inoculated into the contralateral flank of mice and tumors were evaluated weekly using a common caliper. As previously mentioned, animals bearing tumors that exceeded 20-25% body mass were euthanatized. The percentage of dying cells in each condition was evaluated by determining with DiOC(6)3/IP staining (FIGS. 5E, 5I, 5M and 5Q). Finally, the ability of these compounds to repress the growth of cancer cells that have been injected 7 days after injection of irradiated and treated cancer cells was appreciated.\nA second anti-tumor vaccination assay was done on CT26 mouse models of carcinoma as previously described. […]",
  "data": [
    {"smiles": "Cc1cc(-c2ccccc2)nnc1NCCN1CCOCC1.Cl.Cl", "note": "[Minaprine dihydrochloride]", "values": [
      {"measurement": "frequency of mice showing a protective response", "setting": "first assay: CT26 cells, rechallenge one week later", "value": "significant increase in the frequency of mice showing a protective response"},
      {"measurement": "protective response after injection of cancer cells", "setting": "second assay: CT26 cells treated with 10 μM compound alone (no IR)", "value": "induce an increase of protective response"},
      {"measurement": "frequency of mice showing a protective response", "setting": "second assay: CT26 cells, rechallenge 7 days later", "value": "Significant increases in the frequency of mice showing a protective response"}
    ]}
  ]
}
